For data set [1], the system named is Bacillus cereus. The experiment in a line: growth inhibition, paper disc method, trypticase soy agar. The data set is classed as cell-based. The note with it: 8 mm disc, 0.02 ml of a 300 μg/ml solution. The protocol: (§1) The growth inhibitory activity of the compounds against the test organisms is assayed by the paper disc method using a trypticase soy agar (manufactured by Baltimore Biologicals Laboratories, U.S.A.) as the assay medium. That is, the growth inhibitory activity is determined on the plate medium containing the following test organisms using a paper disc (manufactured by Toyo Seisakusho Co. Ltd., thin type, 8 mm in diameter) impregnated with 0.02 ml of a 300 μg/ml solution of C-15003PND-1, PND-2, PND-3 or PND-4.

The subject of data set [2] is Bacillus subtillis. The data set is described as above. The data set is classed as cell-based. The conditions noted are these: 8 mm disc, 0.02 ml of a 300 μg/ml solution. How it is done: as §1
The test system of data set [3] is Escherichia coli. The data set is described as above. The data set is classed as cell-based. The conditions noted are these: 8 mm disc, 0.02 ml of a 300 μg/ml solution. How it is done:
as §1

The subject of data set [4] is Klebsiella pneumoniae. Described as above. The data set is classed as cell-based. The note with it: 8 mm disc, 0.02 ml of a 300 μg/ml solution. The protocol:
as §1

The subject of data set [5] is Mycobacterium avium. The description is as above. The data set is classed as cell-based. The note with it: 8 mm disc, 0.02 ml of a 300 μg/ml solution. The protocol:
as §1

Data set [6] relates to Proteus mirabilis. The description is as above. The data set is classed as cell-based. The note with it: 8 mm disc, 0.02 ml of a 300 μg/ml solution. The protocol: as §1
Data set [7] relates to Proteus vulgaris. Described as above. The data set is classed as cell-based. The note with it: 8 mm disc, 0.02 ml of a 300 μg/ml solution. How it is done: as §1
Data set [8] deals with Pseudomonas aeruginosa. Described as above. The data set is classed as cell-based. The conditions noted are these: 8 mm disc, 0.02 ml of a 300 μg/ml solution. How it is done: as §1
The subject of data set [9] is Serratia marcescens. The data set is described as above. The note with it: 8 mm disc, 0.02 ml of a 300 μg/ml solution. The data set is classed as cell-based. How it is done: as §1
For data set [10], the system named is Staphylococcus aureus. Described as above. The note with it: 8 mm disc, 0.02 ml of a 300 μg/ml solution. The data set is classed as cell-based. The protocol: as §1
The subject of data set [11] is Hamigera avellanea IFO 7721. The experiment in a line: growth inhibition, paper disc method, agar plate. The data set is classed as cell-based. The conditions noted are these: IFO7721, 8 mm disc, 0.02 ml of a 100 μg/ml solution, pH 7.0, read-out: inhibitory zones. The protocol:
Also, the compounds are assayed by the paper disc method using an agar plate [3.5 g of disodiumhydrogen phosphate, 0.5 g of potassium dihydrogen phosphate, 5 g of yeast extract (manufactured by Difco Co.), 10 g of glucose, 15 g of agar, 1000 ml of distilled water, pH 7.0] as a medium for assay and Hamigera avellanea IFO 7721 as a test organism. Thus, the growth inhibitory activity is determined on the plate medium containing the test organism using a paper disc (Toyo Seisakusho Co. Japan, thin type, 8 mm in diameter) impregnated with 0.02 ml of a 100 μg/ml solution of C-15003PND-1, PND-2, PND-3 or PND-4. As a result, C-15003PND-1, PND-2, PND-3 and PND-4 show inhibitory zones of 28 mm, 30 mm, 34 mm and 36 mm, respectively.

Data set [12] relates to Tetrahymena pyriformis W. Nature of the data set: growth inhibition, liquid dilution method. The data set is classed as cell-based. The note with it: 28° C., 44 to 48 hours, pH 7.0, read-out: concentration at which the growth of the test organism is inhibited. The protocol:
Further, the growth inhibitory activity of these antibiotics is determined by the liquid dilution method using a medium [20 g of proteose peptone (Difco Co.), 1 g of yeast extract, 2 g of glucose, 1000 ml of distilled water, 10 ml of 1 M phosphate buffer pH 7.0] and Tetrahymena pyriformis W as a test organism with incubation at 28° C. for 44 to 48 hours. As a result, the growth of the above test organism is found to be inhibited at a concentration of 8 μg/ml of C-15003PND-1, 4 μg/ml of C-15003PND-2, 2 μg/ml of C-15003PND-3 and 1 μg/ml of C-15003PND-4.

The subject of data set [13] is tumor cells leukemia P388. The experiment in a line: antitumor activity, therapeutic effect on leukemia P388 in mice. The data set is classed as in vivo. The conditions noted are these: 1×10^6 cells/mouse i.p.; compound i.p. for 9 consecutive days. How it is done:
The therapeutic effects of C-15003PND-1, PND-2, PND-3 and PND-4 on tumor cells leukemia P388 (1×10^6 cells/mouse, transplanted intraperitoneally) are determined by administering the compound intraperitoneally for 9 consecutive days.

Data set [14] is described as follows: acute toxicity test in mice. The data set is classed as in vivo. The conditions noted are these: intraperitoneal.
The nature of data set [15]: solubility. The data set is classed as physicochemical.
Setting [16] is: in chloroform, ethyl acetate, acetone, ethanol, methanol, pyridine, tetrahydrofuran, dimethyl sulfoxide.
Setting [17] is: in petroleum ether, n-hexane, water.

We go through five compounds from patent US4322348A, “Maytansinoids” (Takeda Chemical Industries, Ltd., priority 1979, dated 1982).

In brackets after ≈: the same amount, converted by molar mass.

For the compound `COc1cc2cc(c1Cl)NC(=O)CC(OC(C)=O)C1(C)OC1C(C)C1CC(O)(NC(=O)O1)C(OC)C=CC=C(C)C2` (stereo not shown) [C-15003PND-1], the growth inhibitory activity entry in data set [1], in [2], in [3], in [4], in [5] and in [6] was “do not show any activity” in each case. Besides, the growth inhibitory activity result in data set [7], in data set [8], in [9] and in data set [10] was “do not show any activity” in each case. Moreover, the zone of inhibition at 100 µg/mL in data set [11] was determined as 28 mm. In addition, in data set [12], the MIC turned out to be 8 µg/mL (≈ 13.5 µM). Also, in data set [13], the life-prolonging effect entry was “a life-prolonging effect”. For the same compound, the “estimated LD0” value in [14] was 0.313 mg/kg. Besides, the “estimated LD100” value in data set [14] is 2.5 mg/kg. The values for the Solubility result in [15] (setting [16]) and in data set [15] (setting [17]) were “Soluble” and “Insoluble”, respectively.
For the compound `COc1cc2cc(c1Cl)NC(=O)CC(O)C1(C)OC1C(C)C1CC(O)(NC(=O)O1)C(OC)C=CC=C(C)C2` (stereo not shown) [C-15003PND-0], the Solubility entry is on record as “Soluble” in [15] (in chloroform, ethyl acetate, acetone, ethanol, pyridine, tetrahydrofuran, dimethyl sulfoxide) and “Insoluble” in [15] (setting [17]).
As to `CCC(=O)OC1CC(=O)Nc2cc(cc(OC)c2Cl)CC(C)=CC=CC(OC)C2(O)CC(OC(=O)N2)C(C)C2OC12C` (stereo not shown) [C-15003PND-2], the growth inhibitory activity result in data set [1], in [2], in data set [3], in data set [4], in data set [5] and in data set [6] was “do not show any activity” throughout. Further, the growth inhibitory activity result in data set [7], in data set [8], in data set [9] and in data set [10] was “do not show any activity” throughout. Besides, the zone of inhibition at 100 µg/mL in [11] came to 30 mm. In [12], the MIC was 4 µg/mL (≈ 6.59 µM). The life-prolonging effect entry in [13] is on record as “a life-prolonging effect”. For the same compound, the “estimated LD0” value in data set [14] is reported as 0.313 mg/kg. Further, in data set [14], the “estimated LD100” value was 2.5 mg/kg. The figures for the Solubility result in data set [15] (setting [16]) and in data set [15] (setting [17]) were “Soluble” and “Insoluble”, respectively.
Consider `COc1cc2cc(c1Cl)NC(=O)CC(OC(=O)CC(C)C)C1(C)OC1C(C)C1CC(O)(NC(=O)O1)C(OC)C=CC=C(C)C2` (stereo not shown) [C-15003PND-4], for which the growth inhibitory activity result in data set [1], in [2], in data set [3], in data set [4], in [5] and in data set [6] was “do not show any activity” each time. Besides, the growth inhibitory activity entry in [7], in [8], in data set [9] and in [10] was “do not show any activity” in each case. In addition, the zone of inhibition at 100 µg/mL in data set [11] stood at 36 mm. In data set [12], the MIC came to 1 µg/mL (≈ 1.57 µM). For the same compound, the life-prolonging effect entry in data set [13] is on record as “a life-prolonging effect”. Moreover, in data set [14], the “estimated LD0” value is on record as 0.313 mg/kg. The “estimated LD100” value in data set [14] is 2.5 mg/kg. For the same compound, the figures for the Solubility entry in data set [15] (setting [16]) and in data set [15] (setting [17]) were “Soluble” and “Insoluble”, respectively.
For `COc1cc2cc(c1Cl)NC(=O)CC(OC(=O)C(C)C)C1(C)OC1C(C)C1CC(O)(NC(=O)O1)C(OC)C=CC=C(C)C2` (stereo not shown) [C-15003PND-3], the growth inhibitory activity entry in data set [1], in [2], in [3], in [4], in data set [5] and in [6] was “do not show any activity” throughout. Further, the growth inhibitory activity result in data set [7], in data set [8], in [9] and in data set [10] was “do not show any activity” throughout. In addition, in data set [11], the zone of inhibition at 100 µg/mL came to 34 mm. The MIC in [12] amounted to 2 µg/mL (≈ 3.22 µM). In data set [13], the life-prolonging effect result is on record as “a life-prolonging effect”. Besides, the “estimated LD0” value in data set [14] is given as 0.313 mg/kg. The “estimated LD100” value in data set [14] is given as 2.5 mg/kg. Also, the Solubility result is “Soluble” in data set [15] (setting [16]) and “Insoluble” in data set [15] (setting [17]).
